In US11297835B2, “Aqueous compositions of perillic acid compounds” (B.R.A.I.N. BIOTECHNOLOGY RESEARCH AND INFORMATION NETWORK AG, priority 2016, dated 2022):

Key:
Assay in all cases: MIC, microdilution method adapted from DIN EN ISO 20776-1:2006
Type in all cases: cell-based
[1] = tested on: Aspergillus brasiliensis ATCC®16404; details: pH <6.5; no growth after 24 h and 72 h
Procedure: (§1) The antimicrobial activity of sodium perillate was examined in vitro using the microdilution method adapted from DIN EN ISO 20776-1:2006. R-Perillic acid and S-perillic acid were used as reference compounds. All experiments were done in 96-well plates in a final volume of 200 μL. Stock solutions of the investigated compounds were prepared in 25 mM buffer. The procedure was conducted as following: 4 μL of the particular stock solution were mixed with 196 μL culture medium containing a defined inoculum of the respective target strain. Sterile controls (not inoculated) and growth controls (buffer in-stead of compound added) were performed. All compound concentrations were tested in triplicate. The following strains were examined: Escherichia coli ATCC®8739, Pseudomonas aeruginosa ATCC®9027, Stapyhlococcus aureus ATCC®6538, Candida albicans ATCC®10231 and Aspergillus brasiliensis ATCC®16404. The following culture media were used: Mueller-Hinton II Bouillon (Escherichia coli, Pseudomonas aeruginosa and Staphylococcus aureus), yeast peptone dextrose (Candida albicans) and potato dextrose (Aspergillus brasiliensis). All culture media were buffered with 25 mM MES-buffer. For compound testing the plates were incubated at 37° C. (Escherichia coli, Pseudomonas aeruginosa and Staphylococcus aureus), at 28° C. (Candida albicans) and at 25° C. (Aspergillus brasiliensis). Plates were evaluated after 24 h and 72 h, respectively. The minimal inhibitory concentration is defined as the concentration where no microbial growth was observed after 24 h and 72 h incubation at the specified temperature.
(§2) Table 1 Determination of the minimal inhibition concentration (MIC, % w/v) of sodium perillate against five classical spoiling organisms under acidic (pH<6.5) and alkaline (pH>7.5) conditions using the microdilution method adapted according to DIN EN ISO 20776-1:2006. The experiments were performed in micro-well plates in a final volume of 200 μL. MIC-values are given according to the following letter code. A>1% w/v, B=0.5-1% w/v, C=0.1-0.5% w/v. D<0.1% w/v.

[2] = tested on: Candida albicans ATCC®10231; details: no growth after 24 h and 72 h
Procedure: as §1, §2

[3] = tested on: Escherichia coli ATCC®8739; details: no growth after 24 h and 72 h
Procedure: as §1, §2

[4] = tested on: Pseudomonas aeruginosa ATCC®9027; details: no growth after 24 h and 72 h
Procedure: as §1, §2

[5] = tested on: Staphylococcus aureus ATCC®6538; details: no growth after 24 h and 72 h
Procedure: as §1, §2

C=C(C)[C@H]1CC=C(C(=O)O)CC1 [R-Perillic Acid, R-Perillic acid]
MIC [1]: D (D<0.1% w/v) | MIC ([2]; pH <6.5): D (D<0.1% w/v) | MIC ([2]; pH >7.5): C (C=0.1-0.5% w/v) | MIC ([3]; pH <6.5): C (C=0.1-0.5% w/v) | MIC ([3]; pH >7.5): B (B=0.5-1% w/v) | MIC ([4]; pH <6.5): B (B=0.5-1% w/v) | MIC ([4]; pH >7.5): A (A>1% w/v) | MIC ([5]; pH <6.5): D (D<0.1% w/v) | MIC ([5]; pH >7.5): B (B=0.5-1% w/v)

C=C(C)[C@@H]1CC=C(C(=O)O)CC1 [S-Perillic Acid, S-perillic acid]
MIC [1]: D (D<0.1% w/v) | MIC ([2]; pH <6.5): D (D<0.1% w/v) | MIC ([2]; pH >7.5): C (C=0.1-0.5% w/v) | MIC ([3]; pH <6.5): C (C=0.1-0.5% w/v) | MIC ([3]; pH >7.5): B (B=0.5-1% w/v) | MIC ([4]; pH <6.5): B (B=0.5-1% w/v) | MIC ([4]; pH >7.5): A (A>1% w/v) | MIC ([5]; pH <6.5): D (D<0.1% w/v) | MIC ([5]; pH >7.5): B (B=0.5-1% w/v)
